Test results reported in patent publication US20120309709A1, “Ion-Channel Regulator Compositions and Methods of Using Same” (priority 2007, published 2012).
Several values for one entry are separate records, joined by “and”; a condition that tells them apart may be missing. Identical values can stand only once. Like-named read-outs stand apart in the source and are kept apart here.

Legend:
[1] = tested on: cells in the synovial tissue; experiment: Trypan blue exclusion test on synovial tissue; conditions: Examples 1-4
Method: Multiple samples of synovial tissue, each approximately 20 mg, were obtained from a person with osteoarthritis (grade IV, Kellgren-Lawrence scale).

[2] = tested on: MMPs produced by synovial tissue in response to IL-1β; conditions: for activity of the MMPs, % of that measured in tissues not exposed to the regulator: IL-1β alone = 100%
[3] = Example 1, person, regulator 0.01 mg/mL
[4] = Example 1, person, regulator 0.05 mg/mL
[5] = Example 2, person, regulator 0.01 mg/mL
[6] = Example 2, person, regulator 0.05 mg/mL
[7] = Example 3, person, regulator 0.01 mg/mL
[8] = Example 3, person, regulator 0.05 mg/mL
[9] = Example 4, person, regulator 0.01 mg/mL
[10] = Example 4, person, regulator 0.05 mg/mL
[11] = Example 5, person, single regulator 0.1 mg/mL
[12] = Example 6, person, single regulator 0.1 mg/mL
[13] = Example 7, person, single regulator 0.1 mg/mL

Row | Compound | concentration at which death of cells in the synovial tissue was observed [1] | activity of the MMPs, % of that measured in tissues not exposed to the regulator [2, 3] [%] | activity of the MMPs, % of that measured in tissues not exposed to the regulator [2, 4] [%] | activity of the MMPs, % of that measured in tissues not exposed to the regulator [2, 5] [%] | activity of the MMPs, % of that measured in tissues not exposed to the regulator [2, 6] [%] | activity of the MMPs, % of that measured in tissues not exposed to the regulator [2, 7] [%] | activity of the MMPs, % of that measured in tissues not exposed to the regulator [2, 8] [%] | activity of the MMPs, % of that measured in tissues not exposed to the regulator [2, 9] [%] | activity of the MMPs, % of that measured in tissues not exposed to the regulator [2, 10] | activity of the MMPs, % of that measured in tissues not exposed to the regulator [2, 11] [%] | activity of the MMPs, % of that measured in tissues not exposed to the regulator [2, 12] [%] | activity of the MMPs, % of that measured in tissues not exposed to the regulator [2, 13] [%] | effect on blocking MMP activity of further increasing the concentration ([2]; Examples 1-4, concentration increased from 0.05 mg/mL up to 0.1 mg/mL, compared with level at 0.05 mg/mL)
1 | COc1ccc([C@@H]2Sc3ccccc3N(CCN(C)C)C(=O)[C@@H]2OC(C)=O)cc1 [diltiazem] | above 0.1 mg/mL | 97 | 27.1 | 99 | 35.7 | 97 | 24.7 | 98.1 | 22.6% | 24.8 | 29.8 | 34.3 | no further effect
2 | COc1ccc(CCN(C)CCCC(C#N)(c2ccc(OC)c(OC)c2)C(C)C)cc1OC (stereo not shown) [verapamil] | above 0.1 mg/mL | 38 | 18.9 | 37.2 | 21.5 | 37 | 23.2 | 35 | 13.6% and 13.1% | 16 | 21.9 | 17.4 | –
